Data: US11987642B2, “Bispecific HER2 and CD3 binding molecules” (MEMORIAL SLOAN KETTERING CANCER CENTER, priority 2014, dated 2024)

What was measured:
[1] = tested on: HeLa cervical carcinoma cells; test: Proliferation assay (WST-8), HeLa; format: cell-based, human
Method: (§1) Cell proliferation was determined using an ELISA plate reader and the WST-8 kit (Dojindo technologies) following the manufacturer's instructions and using the formula: % survival rate=(Sample-Background)/(Negative control-Background). Lapatinib (MSKCC pharmacy) was ground using a mortar and pestle and suspended in DMSO as previously described. To determine statistical significance, the results were analyzed using one-way ANOVA using Prism 6.0.

[2] = tested on: SCCHN cell line PCI-30; test: Proliferation assay (WST-8), PCI-30; format: cell-based, human
Method: as §1

[3] = tested on: U2OS osteosarcoma cells; test: Proliferation assay (WST-8), U2OS; format: cell-based, human
Method: as §1

[4] = tested on: HeLa cervical carcinoma cells; test: T cell cytotoxicity assays, HeLa; format: cell-based, human; settings: lapatinib pretreatment
Method: The ^51Cr release assay was performed with effector T cells cultured in vitro in the presence of anti-CD3 and anti-CD28 for about 14 days. All target tumor cells were harvested with 2 mM EDTA in PBS, labeled with ^51Cr (Amersham, Arlington Height, IL) at 100 μCi/106 cells at 37° C. for 1 h. 5000 target cells/well were mixed with 50,000 effector cells (E:T=10:1) and BsAb antibodies in 96-well polystyrene round-bottom plates (BD Biosciences) to a final volume of 250 μl/well. The plates were incubated at 37° C. for 4 h. The released ^51Cr in supernatant was counted in a γ-counter (Packed Instrument, Downers Grove, IL). Percentage of specific release was calculated using the formula: (experimental cpm−background cpm)/(total cpm−background cpm)×100%, where cpm represented counts per minute of ^51Cr released. […] EC50 was calculated using SigmaPlot software.

[5] = tested on: trastuzumab-sensitive breast carcinoma cell line SKBR3; test: Proliferation assay (WST-8), SKBR3; format: cell-based, human; settings: SKBR3, 72 hours, 10 μg/mL antibody; lapatinib positive control
Method: as §1
For cell proliferation assays, 5,000 tumor cells were plated using RPMI-1640 supplemented with 10% FBS in a 96 well plate for 36 hours before being treated with lapatinib or the antibodies at the specified concentrations. […] Lapatinib (Memorial Sloan Kettering Cancer Center pharmacy) was ground using a mortar and pestle and suspended in DMSO as previously described (Chen et al., 2012, Molecular cancer therapeutics 11:660-669). To determine statistical significance, the results were analyzed using one-way ANOVA using Prism 6.0.

[6] = tested on: HER2-positive cells; test: Blocking of HER2-BsAb redirected T cell cytotoxicity; format: cell-based, human; settings: pre-incubation with blocking antibody
[7] = tested on: HCC1954 xenografts; test: Subcutaneous HCC1954 xenograft with intravenous PBMC; format: in vivo, DKO mice
Method: Subcutaneous xenografts were created with 5×10^6 cells suspended in Matrigel (Corning Corp, Tewksbury MA) and implanted in the flank of DKO mice. Effector peripheral blood mononuclear cell (PBMC) cells were purified from buffy coats purchased from the New York Blood Center. Prior to every experimental procedure, PBMCs were analyzed for their percentage of CD3, CD4, CD8 and CD56 cells to ensure consistency. […] Tumor size was measured using (1) hand-held TM900 scanner (Pieira, Brussels, BE); (2) Calipers; or (3) bioluminescence. Bioluminescence imaging was conducted using the Xenogen In Vivo Imaging System (IVIS) 200 (Caliper LifeSciences). Briefly, mice were injected intravenously with 0.1 mL solution of D-luciferin (Gold Biotechnology; 30 mg/mL stock in PBS). Images were collected 1 to 2 minutes after injection using the following parameters: a 10- to 60-second exposure time, medium binning, and an 8 f/stop. Bioluminescence image analysis was performed using Living Image 2.6 (Caliper LifeSciences).
In two other separate experiments, subcutaneous HER2-positive breast carcinoma cell line HCC1954 was mixed with subcutaneous PBMCs.

| Compound | sensitivity of cells in proliferation assay [1] | sensitivity of cells in proliferation assay [2] | sensitivity of cells in proliferation assay [3] | effect of pretreatment on sensitivity to HER2-BsAb mediated cytotoxicity [4] | anti-proliferative effect [5] | effect of blocking on HER2-BsAb induced T cell cytotoxicity [6] | tumor growth [7] |
| --- | --- | --- | --- | --- | --- | --- | --- |
| C#Cc1cccc(Nc2ncnc3cc(OCCOC)c(OCCOC)cc23)c1 [erlotinib] | pan-resistant | resistant | minimal sensitivity |  |  |  |  |
| CS(=O)(=O)CCNCc1ccc(-c2ccc3ncnc(Nc4ccc(OCc5cccc(F)c5)c(Cl)c4)c3c2)o1 [lapatinib] | pan-resistant | resistant | minimal sensitivity | increased sensitivity | strongest inhibition of cell proliferation |  |  |
| CCOc1cc2ncc(C#N)c(Nc3ccc(OCc4ccccn4)c(Cl)c3)c2cc1NC(=O)/C=C/CN(C)C [neratinib] | pan-resistant | resistant | minimal sensitivity |  |  |  |  |
| OKT3: CD3 specific blocking mAb |  |  |  |  |  | prevented HER2-BsAb T cell mediated cytotoxicity |  |
| huOKT3: humanized OKT3 CD3-specific antibody |  |  |  |  |  | blocked the ability of HER2-BsAb to induce T cell cytotoxicity | only modest effects |
